Measurements: US20230330254A1 (Regeneron Pharmaceuticals, Inc., priority 2022, published 2023)
Read-outs that look alike come from different tables or passages of the source. Values belong to the compound of their own block, whether it stands above or below them. *1 amine or outer side, *2 acyl side, *3 side chain or, on linkers, in order; H or OH if unused. Where a SMILES comes first, the peptide text is derived from it. Side-chain parts run from the residue outwards. [ ]: non-standard residue; d: D form. The star is where a group is joined. PEG24 = NCCOCCOCCOCCOCCOCCOCCOCCOCCOCCOCCOCCOCCOCCOCCOCCOCCOCCOCCOCCOCCOCCOCCOCCOCCC(=O)O; Bip(2'-Et-4'-O(CH2)4NH2) = CCc1cc(OCCCCN[*:3])ccc1-c1ccc(C[C@H](N[*:1])C(=O)[*:2])cc1; Bip(2'-Et,4'-O(CH2)4NH2) = CCc1cc(OCCCCN)ccc1-c1ccc(C[C@H](N)C(=O)O)cc1; Nva(5-(3,5-Me2Ph)) = Cc1cc(C)cc(CCC[C@H](N)C(=O)O)c1; Ala(1H-tetrazol-5-yl) = N[C@@H](Cc1nnn[nH]1)C(=O)O; αMePhe(2-F) = C[C@](N)(Cc1ccccc1F)C(=O)O; X9 = O=C([C@@H]1CCN(CCc2cnc[nH]2)C1)*; DBCO = C1#Cc2ccccc2N(*)Cc2ccccc21; Suc = O=C(CCC(=O)[*:2])[*:1]; X1 = O=C(CCCCCc1cnc[nH]1)*

How the values were obtained:
human GLP1R = human GLP1R (Homo sapiens, UniProt P43220); experiment: Luciferase reporter assay, HEK293/CRE-Luc/hGLP1R (Example 17); format: cell-based; parameters: engineered to express full-length human GLP1R, cynomolgus GLP1R; expressed in transfected cells; host or cells: HEK293/CRE-Luc; details: for S/N: highest RLU / RLU of untreated wells; for Relative Potency (% M2361 EC50) / Relative Signal:Noise (% M2361): relative to M2361 of the same experiment
Description: (§1) To test the activity of GLP1R agonist payloads, GLP1R agonist linker-payloads (LPs), and anti-GLP1R antibody tethered drug conjugates (ATDCs) of the invention, a cell-based cAMP responsive luciferase reporter assay was developed. To generate the assay cell line, the firefly luciferase gene was placed under the control of a cAMP response element (CRE) located upstream of a minimal promoter and transfected into HEK293 cells and referred to herein as HEK293/CRE-Luc cells.
(§2) Three-fold serial dilutions of free payloads or LPs were prepared in 100% DMSO, transferred to fresh assay media, and added to the cells at a final constant DMSO concentration of 0.2%. The last well in the plate served as a blank control containing only the assay media and 0.2% DMSO (untreated well) and was plotted as a continuation of the 3-fold serial dilution. Four to six hours later, luciferase activity was determined after the addition of One-Glo™ reagent (Promega, Cat #E6130) to each well. Relative light units (RLUs) were measured on an Envision luminometer (PerkinElmer) and EC50 values were determined using a four-parameter logistic equation over a 12-point dose response curve (GraphPad Prism). The signal to noise (S/N) was determined by taking the ratio of the highest RLU on the dose response curve to the RLU in the untreated wells. Data was generated across several experiments (A-E) with M2361 serving as a reference standard in each experiment to calculate the payload relative potency ((M2361 EC50/payload EC50)*100)) and relative S/N ((payload SN/M2361 SN)*100)).

HEK293/CRE-Luc cells = experiment: Luciferase reporter assay, HEK293/CRE-Luc cells without GLP1R (Example 17); format: cell-based, human
Description: as §1, §2

[1] = HEK293/CRE-Luc/hGLP1R, payloads and linker-payloads, experiments A-E, M2361 repeated in each, read-out: EC50
[2] = HEK293/CRE-Luc cells without hGLP1R, payloads and linker-payloads
[3] = HEK293/CRE-Luc cells without hGLP1R, payloads and linker-payloads, read-out: EC50
[4] = Table 28, reporter cells without GLP1R, read-out: HEK293/CRE-Luc EC50
[5] = Table 29, reporter cells without GLP1R, read-out: HEK293/CRE-Luc EC50

Chain of human GLP1R (P43220 24-463): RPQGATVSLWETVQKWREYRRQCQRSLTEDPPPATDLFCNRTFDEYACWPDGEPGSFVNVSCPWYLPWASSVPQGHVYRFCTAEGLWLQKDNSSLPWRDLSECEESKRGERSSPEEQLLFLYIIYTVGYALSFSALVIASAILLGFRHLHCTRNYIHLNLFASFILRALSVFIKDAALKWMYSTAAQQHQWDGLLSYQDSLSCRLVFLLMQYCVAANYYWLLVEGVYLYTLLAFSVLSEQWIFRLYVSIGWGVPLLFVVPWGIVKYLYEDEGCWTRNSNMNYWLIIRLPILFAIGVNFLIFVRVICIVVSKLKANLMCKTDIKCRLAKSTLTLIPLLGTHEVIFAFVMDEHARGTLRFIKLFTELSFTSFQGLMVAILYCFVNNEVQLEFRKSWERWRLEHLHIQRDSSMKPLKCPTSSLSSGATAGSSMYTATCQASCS

S/N (human GLP1R; HEK293/CRE-Luc/hGLP1R): 282.1
EC50 (human GLP1R; [1]): 0.01 nM
Relative Potency (% M2361 EC50) (human GLP1R; HEK293/CRE-Luc/hGLP1R): 193.4%
Relative Signal:Noise (% M2361) (human GLP1R; HEK293/CRE-Luc/hGLP1R): 86.0%
Compound: CCc1cc(OCCCCNC(=O)[C@H](CO)NC(=O)CNC(=O)CNC(=O)CNC(=O)CN)ccc1-c1ccc(C[C@H](NC(=O)[C@H](CC(=O)O)NC(=O)[C@H](CO)NC(=O)[C@@H](NC(=O)[C@](C)(Cc2ccccc2F)NC(=O)[C@@H](NC(=O)CNC(=O)[C@H](Cc2nn[nH]n2)NC(=O)C(C)(C)C(=O)NCCc2cnc[nH]2)[C@@H](C)O)[C@@H](C)O)C(=O)N[C@@H](CCCc2cc(C)cc(C)c2)C(N)=O)cc1 [M2739, G4S-P9]

Compound: CCc1cc(OCCCCN)ccc1-c1ccc(C[C@H](NC(=O)[C@H](CC(=O)O)NC(=O)[C@H](CO)NC(=O)[C@@H](NC(=O)[C@](C)(Cc2ccccc2F)NC(=O)[C@@H](NC(=O)CNC(=O)[C@@H](N)CCC(N)=O)[C@@H](C)O)[C@@H](C)O)C(=O)N[C@@H](CCCc2cc(C)cc(C)c2)C(N)=O)cc1 [M2913]
S/N (HEK293/CRE-Luc cells; [2]): 1.1
EC50 (HEK293/CRE-Luc cells; [3]): > 200 nM
S/N (human GLP1R; HEK293/CRE-Luc/hGLP1R): 3.2
Relative Potency (% M2361 EC50) (human GLP1R; HEK293/CRE-Luc/hGLP1R): 0.0%
Relative Signal:Noise (% M2361) (human GLP1R; HEK293/CRE-Luc/hGLP1R): 4.9%

Compound: CCc1cc(OCCCCNC(=O)CCOCCOCCOCCOCCOCCOCCOCCOCCOCCOCCOCCOCCOCCOCCOCCOCCOCCOCCOCCOCCOCCOCCOCCOCCNC(=O)CCC(=O)N2Cc3ccccc3C#Cc3ccccc32)ccc1-c1ccc(C[C@H](NC(=O)[C@H](CC(=O)O)NC(=O)[C@H](CO)NC(=O)[C@@H](NC(=O)[C@](C)(Cc2ccccc2F)NC(=O)[C@@H](NC(=O)CNC(=O)[C@H](Cc2nn[nH]n2)NC(=O)CCCCCc2cnc[nH]2)[C@@H](C)O)[C@@H](C)O)C(=O)N[C@@H](CCCc2cc(C)cc(C)c2)C(N)=O)cc1 [M2944] (X1-[Ala(1H-tetrazol-5-yl)]GT[αMePhe(2-F)]TSD[Bip(2'-Et-4'-O(CH2)4NH2)]([PEG24-Suc-DBCO])[Nva(5-(3,5-Me2Ph))]-NH2)
EC50 (human GLP1R; [1]): > 20 nM
EC50 (human GLP1R; text b1830, read-out: EC50 in HEK293/CRE-Luc/hGLP1R cells): > 20 nM

Compound: CCc1cc(OCCCCN)ccc1-c1ccc(C[C@H](NC(=O)[C@H](CC(=O)O)NC(=O)[C@H](CO)NC(=O)[C@@H](NC(=O)[C@](C)(Cc2ccccc2F)NC(=O)[C@@H](NC(=O)CNC(=O)[C@H](Cc2nn[nH]n2)NC(=O)[C@@H]2CCN(CCc3cnc[nH]3)C2)[C@@H](C)O)[C@@H](C)O)C(=O)N[C@@H](CCCc2cc(C)cc(C)c2)C(N)=O)cc1 [P17] (X9-[Ala(1H-tetrazol-5-yl)]GT[αMePhe(2-F)]TSD[Bip(2'-Et,4'-O(CH2)4NH2)][Nva(5-(3,5-Me2Ph))]-NH2)
S/N (HEK293/CRE-Luc cells; [2]): 1.0
EC50 (HEK293/CRE-Luc cells; [3]): > 200 nM

Compound: GCG [reference compound]
EC50 (HEK293/CRE-Luc cells; [4]): > 200 nM
EC50 (HEK293/CRE-Luc cells; [5]): > 30 nM

Compound: GIP [reference compound]
EC50 (HEK293/CRE-Luc cells; [4]): > 200 nM
EC50 (HEK293/CRE-Luc cells; [5]): > 30 nM

Compound: GLP2 [reference compound]
EC50 (HEK293/CRE-Luc cells; [4]): > 200 nM
EC50 (HEK293/CRE-Luc cells; [5]): > 30 nM
